Reference: PubChem BioAssay AID248 (DTP/NCI, 2004)
Several values for one entry are separate records, joined by “and”; a condition that tells them apart may be missing. Equal values may be shown once. Toxic doses and inconclusive results are not listed. No stated cut-off is given here; in the data, active means T/C of 150% or more; inactive means T/C below 125%.

Tested on: L1210 leukemia ip in BDF1 mice, survival T/C
Assay: NCI In Vivo Anticancer Drug Screen. Data for tumor model L1210 Leukemia (intraperitoneal) in B6D2F1 (BDF1) mice
Conditions: endpoint: mean survival time, higher = longer survival
How it was run: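 Transplantable tumor model; survival measured in treated vs vehicle control mice. Value = treated/control.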

[1] = dose: 100.0 mg/kg/injection, schedule: Q01DX009 (ip), vehicle: Klucel (hydroxypropylcellulose) (HPC)
[2] = dose: 100.0 mg/kg/injection, schedule: Q04DX003 (ip), vehicle: Klucel (hydroxypropylcellulose) (HPC)
[3] = dose: 200.0 mg/kg/injection, schedule: Q01DX009 (ip), vehicle: Klucel (hydroxypropylcellulose) (HPC)
[4] = dose: 200.0 mg/kg/injection, schedule: Q04DX003 (ip), vehicle: Klucel (hydroxypropylcellulose) (HPC)
[5] = dose: 400.0 mg/kg/injection, schedule: Q01DX009 (ip), vehicle: Klucel (hydroxypropylcellulose) (HPC)
[6] = dose: 400.0 mg/kg/injection, schedule: Q04DX003 (ip), vehicle: Klucel (hydroxypropylcellulose) (HPC)
[7] = dose: 100.0 mg/kg/injection, schedule: Q01DX009 (ip), vehicle: saline
[8] = dose: 100.0 mg/kg/injection, schedule: Q04DX002 (ip), vehicle: Klucel (hydroxypropylcellulose) (HPC)
[9] = dose: 200.0 mg/kg/injection, schedule: Q04DX002 (ip), vehicle: Klucel (hydroxypropylcellulose) (HPC)
[10] = dose: 400.0 mg/kg/injection, schedule: Q04DX002 (ip), vehicle: Klucel (hydroxypropylcellulose) (HPC)
[11] = dose: 100.0 mg/kg/injection, schedule: Q04DX003 (ip), vehicle: saline
[12] = dose: 200.0 mg/kg/injection, schedule: Q04DX003 (ip), vehicle: saline
[13] = dose: 100.0 mg/kg/injection, schedule: Q01DX001 (ip), vehicle: saline
[14] = dose: 200.0 mg/kg/injection, schedule: Q01DX001 (ip), vehicle: saline
[15] = dose: 400.0 mg/kg/injection, schedule: Q01DX001 (ip), vehicle: saline

Measured: T/C

O=C(Nc1ccccc1Cl)Oc1ccccc1Cc1ccccc1
inactive: [1] 96 % of control | [2] 107 % of control | [3] 93 % of control | [4] 90 % of control | [5] 115 % of control | [6] 93 % of control

CC(=O)Nc1ccc(CCCCc2cccc(C#N)c2)cc1
inactive: dose: 50.0 mg/kg/injection, schedule: Q01DX009 (ip), vehicle: saline 95 % of control | [7] 100 % of control | dose: 200.0 mg/kg/injection, schedule: Q01DX009 (ip), vehicle: saline 97 % of control

Cc1cccc(C)c1OC(=O)Nc1cccc(Cl)c1
inactive: [8] 114 % of control | [9] 105 % of control | [10] 105 % of control

BrC#CC1=CCCCC1
inactive: dose: 100.0 mg/kg/injection, schedule: Q01DX009 (ip), vehicle: acetone 88 % of control | [11] 105 % of control | dose: 200.0 mg/kg/injection, schedule: Q01DX009 (ip), vehicle: acetone 86 % of control | [12] 103 % of control | dose: 400.0 mg/kg/injection, schedule: Q01DX009 (ip), vehicle: acetone 108 % of control | dose: 400.0 mg/kg/injection, schedule: Q04DX003 (ip), vehicle: saline 107 % of control

CC(C)(O)C#N
inactive: dose: 5.0 mg/kg/injection, schedule: Q01DX001 (ip), vehicle: saline 108 % of control | dose: 10.0 mg/kg/injection, schedule: Q01DX001 (ip), vehicle: saline 102 % of control | dose: 15.0 mg/kg/injection, schedule: Q01DX001 (ip), vehicle: saline 104 % of control

CS(=O)(=O)OCCN(CCOS(C)(=O)=O)c1ccc(C=Nc2ccc(C(=O)O)cc2)c(Cl)c1
inactive: [2] 120 % of control | [4] 105 % of control | [6] 86 % of control

OC(CF)CF
inactive: dose: 25.0 mg/kg/injection, schedule: Q01DX009 (ip), vehicle: saline 115 % of control | [7] 103 % of control

Cc1cc(C)c(C(=O)CC(=O)c2cccnc2)c(C)c1
inactive: dose: 25.0 mg/kg/injection, schedule: Q01DX001 (ip), vehicle: saline 102 % of control | dose: 50.0 mg/kg/injection, schedule: Q01DX001 (ip), vehicle: saline 101 % of control and 104 % of control | dose: 50.0 mg/kg/injection, schedule: Q04DX003 (ip), vehicle: saline 97 % of control | [13] 102 % of control and 103 % of control | [11] 97 % of control | [14] 97 % of control and 98 % of control | [12] 98 % of control | [15] 103 % of control

CCCCCN1CCCC(OC(=O)N(C)C)C1 (stereo unspecified)
inactive: dose: 25.0 mg/kg/injection, schedule: Q04DX002 (ip), vehicle: saline 106 % of control | dose: 50.0 mg/kg/injection, schedule: Q04DX002 (ip), vehicle: saline 103 % of control | dose: 100.0 mg/kg/injection, schedule: Q04DX002 (ip), vehicle: saline 86 % of control

CCC(CC)(Cc1ccccc1)C(=O)NC(=O)NOC
inactive: dose: 100.0 mg/kg/injection, schedule: Q01DX Z (ip), vehicle: methylcellulose (MC) 98 % of control | dose: 200.0 mg/kg/injection, schedule: Q01DX Z (ip), vehicle: methylcellulose (MC) 96 % of control

O=C(O)C1=NN(c2ccc([N+](=O)[O-])cc2)C(=O)C1
inactive: dose: 100.0 mg/kg/injection, schedule: Q04DX003 (ip), vehicle: other 106 % of control | dose: 200.0 mg/kg/injection, schedule: Q04DX003 (ip), vehicle: other 105 % of control | dose: 400.0 mg/kg/injection, schedule: Q04DX003 (ip), vehicle: other 106 % of control

Cc1ccc(C(=O)NS(=O)(=O)c2ccc(C)cc2)cc1
inactive: [1] 91 % of control | [2] 101 % of control | [3] 105 % of control | [4] 103 % of control | [6] 104 % of control

Cc1ccc(NC(C(=O)O)c2ccccc2)cc1 (stereo unspecified)
inactive: [8] 104 % of control | [9] 111 % of control

O=C(CI)NCc1cn(C2CC(O)C(CO)O2)c(=O)[nH]c1=O (stereo unspecified)
inactive: dose: 25.0 mg/kg/injection, schedule: Q01DX005 (ip), vehicle: water 105 % of control | dose: 50.0 mg/kg/injection, schedule: Q01DX005 (ip), vehicle: water 116 % of control | dose: 100.0 mg/kg/injection, schedule: Q01DX005 (ip), vehicle: water 116 % of control

NC(N)=N/N=C\c1ccc2c(c1)OCO2
inactive: dose: 15.0 mg/kg/injection, schedule: Q01DX Z (ip), vehicle: saline 98 % of control | dose: 30.0 mg/kg/injection, schedule: Q01DX Z (ip), vehicle: saline 88 % of control | dose: 30.0 mg/kg/injection, schedule: Q01DX Z (oral), vehicle: saline 92 % of control | dose: 60.0 mg/kg/injection, schedule: Q01DX Z (ip), vehicle: saline 92 % of control | dose: 60.0 mg/kg/injection, schedule: Q01DX Z (oral), vehicle: saline 94 % of control | dose: 120.0 mg/kg/injection, schedule: Q01DX Z (oral), vehicle: saline 97 % of control

O=C(CNC(=O)c1ccccc1)N/N=C/c1ccc(Cl)cc1Cl
inactive: dose: 100.0 mg/kg/injection, schedule: Q01DX009 (ip), vehicle: saline with Tween-80 94 % of control | dose: 200.0 mg/kg/injection, schedule: Q01DX009 (ip), vehicle: saline with Tween-80 89 % of control | dose: 400.0 mg/kg/injection, schedule: Q01DX009 (ip), vehicle: saline with Tween-80 98 % of control

Cc1cc(N=C2C=C(Br)C(=O)C(Br)=C2)cc(CN(CC(=O)O)CC(=O)O)c1O
inactive: [13] 105 % of control | [14] 111 % of control | [15] 100 % of control

O/N=C1/CCCCc2ccccc21
inactive: [13] 105 % of control | [14] 110 % of control | [15] 96 % of control

CCCCCCCCCCCCN(CCC(=O)O)S(=O)(=O)O
inactive: dose: 12.5 mg/kg/injection, schedule: Q04DX003 (ip), vehicle: Klucel (hydroxypropylcellulose) (HPC) 101 % of control | dose: 25.0 mg/kg/injection, schedule: Q01DX009 (ip), vehicle: Klucel (hydroxypropylcellulose) (HPC) 94 % of control | dose: 25.0 mg/kg/injection, schedule: Q04DX003 (ip), vehicle: Klucel (hydroxypropylcellulose) (HPC) 98 % of control | dose: 50.0 mg/kg/injection, schedule: Q01DX009 (ip), vehicle: Klucel (hydroxypropylcellulose) (HPC) 96 % of control | dose: 50.0 mg/kg/injection, schedule: Q04DX003 (ip), vehicle: Klucel (hydroxypropylcellulose) (HPC) 102 % of control | [1] 94 % of control | [2] 97 % of control

Cc1ccc(S(=O)(=O)Nc2ccccc2OS(=O)(=O)c2ccc(C)cc2)cc1
inactive: dose: 100.0 mg/kg/injection, schedule: Q01DX001 (ip), vehicle: Klucel (hydroxypropylcellulose) (HPC) 95 % of control | [1] 106 % of control | [2] 101 % of control | dose: 200.0 mg/kg/injection, schedule: Q01DX001 (ip), vehicle: Klucel (hydroxypropylcellulose) (HPC) 89 % of control | [3] 108 % of control | [4] 100 % of control | dose: 400.0 mg/kg/injection, schedule: Q01DX001 (ip), vehicle: Klucel (hydroxypropylcellulose) (HPC) 93 % of control | [5] 106 % of control | [6] 97 % of control

CCCCCCC1CC2CCCCC2CC1CCCC (stereo unspecified)
inactive: dose: 100.0 mg/kg/injection, schedule: Q01DX001 (ip), vehicle: carboxymethylcellulose (CMC) 96 % of control | dose: 200.0 mg/kg/injection, schedule: Q01DX001 (ip), vehicle: carboxymethylcellulose (CMC) 100 % of control | dose: 400.0 mg/kg/injection, schedule: Q01DX001 (ip), vehicle: carboxymethylcellulose (CMC) 94 % of control

COc1ccc(N=C(c2ccccc2)c2ccc([N+](=O)[O-])cc2)cc1
inactive: [1] 91 % of control | [2] 93 % of control | [3] 101 % of control | [4] 98 % of control | [5] 98 % of control | [6] 98 % of control

O=C(Oc1ccccc1)c1ccc2ccccc2c1O
inactive: [8] 100 % of control | [9] 91 % of control | [10] 100 % of control

OC1CSC1.[Cl][Hg][Cl]
inactive: dose: 5.0 mg/kg/injection, schedule: Q01DX001 (ip), vehicle: carboxymethylcellulose (CMC) 94 % of control | dose: 10.0 mg/kg/injection, schedule: Q01DX001 (ip), vehicle: carboxymethylcellulose (CMC) 100 % of control | dose: 20.0 mg/kg/injection, schedule: Q01DX001 (ip), vehicle: carboxymethylcellulose (CMC) 91 % of control

CC(=O)C1(O)CCC2C3CCC4=CC(=O)CCC4(C)C3CC(=O)C21C (stereo unspecified)
inactive: dose: 75.0 mg/kg/injection, schedule: Q01DX001 (ip), vehicle: other 95 % of control | dose: 150.0 mg/kg/injection, schedule: Q01DX001 (ip), vehicle: other 93 % of control | dose: 300.0 mg/kg/injection, schedule: Q01DX001 (ip), vehicle: other 95 % of control
